Reference: PMC9967051, “(S)-N-Benzyl-1-phenyl-3,4-dihydroisoqunoline-2(1H)-carboxamide Derivatives, Multi-Target Inhibitors of Monoamine Oxidase and Cholinesterase: Design, Synthesis, and Biological Activity” (Molecules, 2023)

Tests used:
[1] = target: BChE (Homo sapiens, UniProt P06276); assay: biochemical; conditions: compounds concentration 100 µM; read-out: Inhibition Rate BChE
Procedure: Inhibition of AChE and BChE was measured through the spectrophotometric method developed by Ellman’s method with slight modifications. The analysis protocol contained 96-well plates (100 µL per well). Each well involved 20 µL of assay buffer solution, 20 µL of the test sample, and 40 µL of 0.2 U/mL of AChE or BChE. The mixture was incubated for 10 min at 25 °C followed by the addition of substrate (20 µL). For AChE inhibition assay, acetylthiocholine iodide (ATCI, 0.001 mol/L), while for BChE assay, butyrylthiocholine chloride (BTCCl, 0.001 mol/L) was added to it. The mixture was incubated at 37 °C for 15 min. Ellman reagent (5,5′-dithio-bis(2-nitrobenzoic acid), DTNB, 0.001 mol/L) was added. […] The blank analysis was performed. All the analyses were performed in triplicate. Inhibition rate of experimental sample or positive control group (%) = [(control group-blank background)-(experimental sample or positive control group -sample background)]/(control-blank background) × 100%.

[2] = test system: MAO; assay: MAO activity assay (total MAO); type: biochemical; conditions: for Inhibition Rate for MAO: compounds concentration 100 µM
Procedure: (§1) The enzyme activity analysis was performed according to the procedure reported by Matsumoto et al. with slight modifications. All materials used in the enzymatic assays were purchased from Aladdin Reagent Chemicals. […] The concentrations of the synthesized compounds altered from 0.001 µM to 100 µM for the MAO-A and -B enzyme activity inhibition. […] The enzymatic reactions were caused by the addition of MAO-A (40 µg/mL) or MAO-B (20 µg/mL), and cultured at 37 °C for 30 min. The enzyme reactions were stopped through the addition of 2N NaOH for 75 µL. […] The inhibitory effect of enzyme activity was calculated as a percentage of product formation compared to the corresponding control with no inhibitor. A control was established to determine the interference of the tested compounds to the fluorescence assay, and the enzyme or substrate was added after the reaction stopped.

[3] = MTT cytotoxicity test; type: cell-based; conditions: mouse; L929 cells, compared with the blank control, 3.125 to 100 μM
Procedure: (§2) L929 cells in the logarithmic growth phase were selected, and the cell density was adjusted to 2 × 10^4 per well by a cell counter. The 96-well plate was inoculated in a 96-well plate, and the 96-well plate inoculated with cells was cultured in a 37 °C 5% carbon dioxide cell incubator for 24 h. Then, the medium containing 100 μM of the compound to be tested was added (the blank group was added to the medium without drug), shaken gently, and placed in a 5% carbon dioxide cell incubator at 37 °C for 24 h. Each concentration was repeated for […].
(§3) The assay detects live cells, but not dead cells, and the resulting signal depends on how activated the cells are. […] Therefore, MTT has been used to establish quantitative colorimetric assays for mammalian cell survival and proliferation. Therefore, this method can be used to measure cytotoxicity, proliferation, or activation. After 24 h, 20 μL of […] MTT solution (prepared in PBS with pH 7.6) was added in the dark, and cultured in a cell incubator for another 4 h. After 4 h, the 96 plate was taken out to discard the original medium, and 160 μL of DMSO was added, placed on a shaker, and mixed for about 10 min. Then, a microplate reader was used to measure its absorbance at 490 nm, and the results were recorded and analyzed.

[4] = test system: L929 cells; assay: MTT cytotoxicity test; type: cell-based; conditions: MTT, 3.125 to 100 μM
Procedure: as §2, §3

[5] = target: T1, MAO-A (Homo sapiens, UniProt P21397); assay: MAO activity assay, MAO-A; type: biochemical
T1 construct: purchased Aladdin Reagent Chemicals
T1 sequence (P21397 1-527): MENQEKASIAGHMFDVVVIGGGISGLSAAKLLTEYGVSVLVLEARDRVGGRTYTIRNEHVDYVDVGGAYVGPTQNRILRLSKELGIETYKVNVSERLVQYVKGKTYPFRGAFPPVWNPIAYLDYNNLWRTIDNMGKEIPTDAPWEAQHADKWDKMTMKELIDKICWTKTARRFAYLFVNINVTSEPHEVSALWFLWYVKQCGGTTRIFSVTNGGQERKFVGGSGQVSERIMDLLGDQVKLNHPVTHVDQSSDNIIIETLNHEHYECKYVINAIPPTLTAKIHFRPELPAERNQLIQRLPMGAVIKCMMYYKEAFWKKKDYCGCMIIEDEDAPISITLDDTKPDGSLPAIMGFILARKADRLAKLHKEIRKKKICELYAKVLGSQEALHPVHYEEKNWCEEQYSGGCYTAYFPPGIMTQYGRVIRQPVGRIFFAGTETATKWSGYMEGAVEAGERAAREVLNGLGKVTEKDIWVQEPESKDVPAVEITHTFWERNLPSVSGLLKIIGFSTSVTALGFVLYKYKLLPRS
Procedure: as §1

[6] = test system: L929 cells; assay: AO fluorescent staining cell viability; type: cell-based; conditions: 100 μM, compared with the control group
Procedure: Using the AO Fluorescent Staining Kit, AO is a tricyclic heteroaromatic dye that can penetrate cells with intact cell membranes and embed nuclear DNA, making them emit bright green fluorescence. L929 cells were selected from the logarithmic growth phase, and the cell density was adjusted to 8 × 10^5 per well with a cell counter to inoculate in a 6-well plate, and the 6-well plate was placed in a 37 °C 5% carbon dioxide cell incubator for 12 h. It grew completely adhering to the wall. After 12 h, 1 mL of medium containing 100 μM of the compound to be tested was added (for the blank group, drug-free medium was added), shaken gently, and placed in a 5% carbon dioxide cell incubator at 37 °C for 12 h. After 12h, the medium was discarded, PBS was added to wash once, 1 mL of PBS and 80 μL of AO solution (prepared according to the kit instructions) were slowly added in the dark, and mixed for 5 min to make the staining uniform and sufficient. The staining was aspirated after 5 min, washed 1–2 times with PBS, and observed under a fluorescence microscope, the results were recorded and analyzed.

[7] = target: T2, MAO-B (Homo sapiens, UniProt P27338); assay: MAO activity assay, MAO-B; type: biochemical
T2 construct: purchased Aladdin Reagent Chemicals
T2 sequence (P27338 1-520): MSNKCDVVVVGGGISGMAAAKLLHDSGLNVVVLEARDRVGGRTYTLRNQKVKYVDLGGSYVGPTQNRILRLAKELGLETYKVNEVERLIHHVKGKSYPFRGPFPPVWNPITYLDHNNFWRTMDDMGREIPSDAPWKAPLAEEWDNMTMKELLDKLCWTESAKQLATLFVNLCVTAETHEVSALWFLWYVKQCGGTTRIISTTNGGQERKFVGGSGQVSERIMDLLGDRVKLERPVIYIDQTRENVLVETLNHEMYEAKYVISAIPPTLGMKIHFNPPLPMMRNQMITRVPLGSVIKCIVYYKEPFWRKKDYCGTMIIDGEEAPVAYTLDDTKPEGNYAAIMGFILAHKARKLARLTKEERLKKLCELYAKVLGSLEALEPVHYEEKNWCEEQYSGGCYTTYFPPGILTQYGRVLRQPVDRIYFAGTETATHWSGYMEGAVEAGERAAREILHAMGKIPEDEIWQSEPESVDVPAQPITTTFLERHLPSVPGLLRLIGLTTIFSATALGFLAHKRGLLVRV
Procedure: as §1

BChE, sequence (P06276 29-602): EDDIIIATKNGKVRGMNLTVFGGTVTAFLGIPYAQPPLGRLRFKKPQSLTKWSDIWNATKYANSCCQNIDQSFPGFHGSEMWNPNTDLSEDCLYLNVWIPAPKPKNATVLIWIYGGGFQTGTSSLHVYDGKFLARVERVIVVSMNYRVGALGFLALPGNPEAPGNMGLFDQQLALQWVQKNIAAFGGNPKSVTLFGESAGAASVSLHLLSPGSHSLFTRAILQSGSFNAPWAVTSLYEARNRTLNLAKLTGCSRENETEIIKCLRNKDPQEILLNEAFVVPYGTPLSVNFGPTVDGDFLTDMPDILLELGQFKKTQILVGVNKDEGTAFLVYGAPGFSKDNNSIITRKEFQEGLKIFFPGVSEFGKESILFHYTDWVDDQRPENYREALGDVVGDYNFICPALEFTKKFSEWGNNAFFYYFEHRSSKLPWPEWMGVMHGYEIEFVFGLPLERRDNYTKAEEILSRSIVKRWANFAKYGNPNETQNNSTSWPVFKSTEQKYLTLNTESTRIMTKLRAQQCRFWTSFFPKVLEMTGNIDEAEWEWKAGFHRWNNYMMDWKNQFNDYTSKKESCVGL

SMILES	inhibition at 100 µM [1] [%]	Inhibition Rate for MAO [2] [%]	further results
O=C(NCc1ccccc1F)N1CCc2ccccc2[C@@H]1c1ccccc1 [2b, (S)-N-(o-fluorobenzyl)-1-phenyl-3,4-dihydroisoquinoline-2(1H)-carboxamide]	49	–	–
O=C(NCc1c(F)cccc1F)N1CCc2ccccc2[C@@H]1c1ccccc1 [2ab, (S)-N-(2,6-difluorobenzyl)-1-phenyl-3,4-dihydroisoquinoline-2(1H)-carboxamide]	24.9	33.0	–
Cc1cccc(CNC(=O)N2CCc3ccccc3[C@@H]2c2ccccc2)c1 [2q, (S)-N-(m-methylbenzyl)-1-phenyl-3,4-dihydroisoquinoline-2(1H)-carboxamide]	8.7	–	–
C#CCN[C@@H]1CCc2ccccc21 [Rasagiline, reference compound]	–	91.75	IC50 [2]: 338 nM
O=C(NCc1ccccc1Cl)N1CCc2ccccc2[C@@H]1c1ccccc1 [2e, (S)-N-(o-chlorobenzyl)-1-phenyl-3,4-dihydroisoquinoline-2(1H)-carboxamide]	–	41.4	–
O=C(NCc1cccc(C(F)(F)F)c1)N1CCc2ccccc2C1c1ccccc1 (stereo in doubt) [2l, (S)-N-(m-(trifluoromethyl)benzyl)-1-phenyl-3,4-dihydroisoquinoline-2(1H)-carbox-amide]	49.1	–	–
COc1ccc(CNC(=O)N2CCc3ccccc3[C@@H]2c2ccccc2)cc1 [2u, (S)-N-(p-methoxybenzyl)-1-phenyl-3,4-dihydroisoquinoline-2(1H)-carboxamide]	40.7	–	–
O=C(NCc1ccc(OC(F)(F)F)cc1)N1CCc2ccccc2C1c1ccccc1 (stereo in doubt) [2o, (S)-N-(p-(trifluoromethoxy)benzyl)-1-phenyl-3,4-dihydroisoquinoline-2(1H)-carbox-amide]	–	31.1	–
O=C(NCc1ccccc1C(F)(F)F)N1CCc2ccccc2C1c1ccccc1 (stereo in doubt) [2k, (S)-N-(o-(trifluoromethyl)benzyl)-1-phenyl-3,4-dihydroisoquinoline-2(1H)-carboxa-mide]	–	33.0	–
O=C(NCc1ccc(F)cc1)N1CCc2ccccc2[C@@H]1c1ccccc1 [2d, (S)-N-(p-fluorobenzyl)-1-phenyl-3,4-dihydroisoquinoline-2(1H)-carboxamide]	–	–	viability at 24 h [3]: > 90%; cytotoxicity against L929 cells [4]: no obvious cytotoxicity; IC50 [2]: 5780 nM; IC50 [5]: 1380 nM; toxicity toward L929 cells (AO fluorescence staining) [6]: no significant toxicity; IC50 [7]: > 100000 nM
COc1ccccc1CNC(=O)N1CCc2ccccc2[C@@H]1c1ccccc1 [2s, (S)-N-(o-methoxybenzyl)-1-phenyl-3,4-dihydroisoquinoline-2(1H)-carboxamid]	39.6	–	–
O=C(NCc1ccc(F)cc1F)N1CCc2ccccc2[C@@H]1c1ccccc1 [2aa, (S)-N-(2,4-difluorobenzyl)-1-phenyl-3,4-dihydroisoquinoline-2(1H)-carboxamide]	–	32.1	–
COc1ccc(CNC(=O)N2CCc3ccccc3[C@@H]2c2ccccc2)cc1OC [2w, (S)-N-(3,4-dimethoxybenzyl)-1-phenyl-3,4-dihydroisoquinoline-2(1H)-carboxamide]	9.4	–	–
O=C(NCc1ccc(Cl)cc1)N1CCc2ccccc2[C@@H]1c1ccccc1 [2g, (S)-N-(p-chlorobenzyl)-1-phenyl-3,4-dihydroisoquinoline-2(1H)-carboxamide]	–	21.2	–
O=C(NCc1cccc(Cl)c1)N1CCc2ccccc2[C@@H]1c1ccccc1 [2f, (S)-N-(m-chlorobenzyl)-1-phenyl-3,4-dihydroisoquinoline-2(1H)-carboxamide]	3.4	–	–
O=C(NCc1ccc(C(F)(F)F)cc1)N1CCc2ccccc2C1c1ccccc1 (stereo in doubt) [2m, (S)-N-(p-(trifluoromethyl)benzyl)-1-phenyl-3,4-dihydroisoquinoline-2(1H)-carboxa-mide]	–	35.8	–
O=C(NCc1ccc(Cl)cc1Cl)N1CCc2ccccc2[C@@H]1c1ccccc1 [2x, (S)-N-(2,4-dichlorobenzyl)-1-phenyl-3,4-dihydroisoquinoline-2(1H)-carboxamide]	–	44.7	–
O=C(NCc1ccccc1OC(F)(F)F)N1CCc2ccccc2C1c1ccccc1 (stereo in doubt) [2n, (S)-N-(o-(trifluoromethoxy)benzyl)-1-phenyl-3,4-dihydroisoquinoline-2(1H)-carbox-amide]	–	33.0	–
N#Cc1ccc(CNC(=O)N2CCc3ccccc3[C@@H]2c2ccccc2)cc1 [2ac, (S)-N-(p-cyanobenzyl)-1-phenyl-3,4-dihydroisoquinoline-2(1H)-carboxamide]	17.7	–	–
O=C(NCc1ccc(Cl)c(Cl)c1)N1CCc2ccccc2[C@@H]1c1ccccc1 [2z, (S)-N-(3,4-dichlorobenzyl)-1-phenyl-3,4-dihydroisoquinoline-2(1H)-carboxamide]	12.1	7.40	–
O=C(NCc1c(Cl)cccc1Cl)N1CCc2ccccc2[C@@H]1c1ccccc1 [2y, (S)-N-(2,6-dichlorobenzyl)-1-phenyl-3,4-dihydroisoquinoline-2(1H)-carboxamide]	–	37.7	–
